Results: PubChem BioAssay AID1259407 (Chemical Carcinogenesis Research Information System (CCRIS), 2018)
Activity calls are given as the source filed them. How the calls were made is not given here.

System: CCRIS mutagenicity, Ames/micronucleus/aberration tests
Assay: CCRIS mutagenicity studies
[1] = Test System: AMES SALMONELLA TYPHIMURIUM, Strain/Indicator: TA98, Metabolic Activation: NONE, Method: STANDARD PLATE
[2] = Test System: AMES SALMONELLA TYPHIMURIUM, Strain/Indicator: TA100, Metabolic Activation: NONE, Method: STANDARD PLATE
[3] = Test System: AMES SALMONELLA TYPHIMURIUM, Strain/Indicator: TA102, Metabolic Activation: NONE, Method: STANDARD PLATE
[4] = Test System: AMES SALMONELLA TYPHIMURIUM, Strain/Indicator: TA1535, Metabolic Activation: NONE, Method: STANDARD PLATE
[5] = Test System: AMES SALMONELLA TYPHIMURIUM, Strain/Indicator: TA1537, Metabolic Activation: NONE, Method: STANDARD PLATE
[6] = Test System: AMES SALMONELLA TYPHIMURIUM, Strain/Indicator: TA1538, Metabolic Activation: NONE, Method: STANDARD PLATE
[7] = Test System: AMES SALMONELLA TYPHIMURIUM, Strain/Indicator: TA98, Metabolic Activation: RAT, LIVER, S-9, AROCLOR 1254, Method: STANDARD PLATE
[8] = Test System: AMES SALMONELLA TYPHIMURIUM, Strain/Indicator: TA100, Metabolic Activation: RAT, LIVER, S-9, AROCLOR 1254, Method: STANDARD PLATE
[9] = Test System: AMES SALMONELLA TYPHIMURIUM, Strain/Indicator: TA1535, Metabolic Activation: RAT, LIVER, S-9, AROCLOR 1254, Method: STANDARD PLATE
[10] = Test System: AMES SALMONELLA TYPHIMURIUM, Strain/Indicator: TA1537, Metabolic Activation: RAT, LIVER, S-9, AROCLOR 1254, Method: STANDARD PLATE
[11] = Test System: AMES SALMONELLA TYPHIMURIUM, Strain/Indicator: TA1538, Metabolic Activation: RAT, LIVER, S-9, AROCLOR 1254, Method: STANDARD PLATE
[12] = Test System: AMES SALMONELLA TYPHIMURIUM, Strain/Indicator: TA98, Metabolic Activation: NONE, Method: PREINCUBATION
[13] = Test System: AMES SALMONELLA TYPHIMURIUM, Strain/Indicator: TA100, Metabolic Activation: NONE, Method: PREINCUBATION

With `CNC(=O)Oc1ccc2c(c1)[C@]1(C)CCN(C)[C@@H]1N2C` the mutagenic call (Test System: AMES SALMONELLA TYPHIMURIUM, Strain/Indicator: TA97, Metabolic Activation: LIVER, S-9 (10%), Method: STANDARD PLATE) was “inactive; negative”, the mutagenic call (Test System: AMES SALMONELLA TYPHIMURIUM, Strain/Indicator: TA97, Metabolic Activation: NONE, Method: STANDARD PLATE) was “inactive; negative” and the mutagenic call (Test System: AMES SALMONELLA TYPHIMURIUM, Strain/Indicator: TA97, Metabolic Activation: S-9, Method: STANDARD PLATE) was “inactive; negative”. For the same molecule, the mutagenic call (Test System: AMES SALMONELLA TYPHIMURIUM, Strain/Indicator: TA98, Metabolic Activation: LIVER, S-9 (10%), Method: STANDARD PLATE) was “inactive; negative”, the mutagenic call [1] was “inactive; negative” and the mutagenic call (Test System: AMES SALMONELLA TYPHIMURIUM, Strain/Indicator: TA98, Metabolic Activation: S-9, Method: STANDARD PLATE) was “inactive; negative”. The mutagenic call (Test System: AMES SALMONELLA TYPHIMURIUM, Strain/Indicator: TA100, Metabolic Activation: LIVER, S-9 (10%), Method: STANDARD PLATE) was “inactive; negative”, the mutagenic call [2] was “inactive; negative” and the mutagenic call (Test System: AMES SALMONELLA TYPHIMURIUM, Strain/Indicator: TA100, Metabolic Activation: S-9, Method: STANDARD PLATE) was “inactive; negative”. For the same molecule, the mutagenic call [3] was “inactive; negative”, the mutagenic call (Test System: AMES SALMONELLA TYPHIMURIUM, Strain/Indicator: TA102, Metabolic Activation: S-9, Method: STANDARD PLATE) was “inactive; negative” and the mutagenic call (Test System: AMES SALMONELLA TYPHIMURIUM, Strain/Indicator: TA104, Metabolic Activation: LIVER, S-9 (10%), Method: STANDARD PLATE) was “inactive; negative”. For the same molecule, the mutagenic call (Test System: AMES SALMONELLA TYPHIMURIUM, Strain/Indicator: TA104, Metabolic Activation: NONE, Method: STANDARD PLATE) was “inactive; negative”, the mutagenic call (Test System: AMES SALMONELLA TYPHIMURIUM, Strain/Indicator: TA104, Metabolic Activation: S-9, Method: STANDARD PLATE) was “inactive; negative” and the mutagenic call (Test System: AMES SALMONELLA TYPHIMURIUM, Strain/Indicator: TA1535, Metabolic Activation: LIVER, S-9 (10%), Method: STANDARD PLATE) was “inactive; negative”. For the same molecule, the mutagenic call [4] was “inactive; negative”, the mutagenic call (Test System: AMES SALMONELLA TYPHIMURIUM, Strain/Indicator: TA1535, Metabolic Activation: S-9, Method: STANDARD PLATE) was “inactive; negative” and the mutagenic call (Test System: AMES SALMONELLA TYPHIMURIUM, Strain/Indicator: TA1537, Metabolic Activation: LIVER, S-9 (10%), Method: STANDARD PLATE) was “inactive; negative”. The mutagenic call [5] was “inactive; negative”, the mutagenic call (Test System: AMES SALMONELLA TYPHIMURIUM, Strain/Indicator: TA1537, Metabolic Activation: S-9, Method: STANDARD PLATE) was “inactive; negative” and the mutagenic call (Test System: AMES SALMONELLA TYPHIMURIUM, Strain/Indicator: TA1538, Metabolic Activation: LIVER, S-9 (10%), Method: STANDARD PLATE) was “inactive; negative”. The mutagenic call [6] was “inactive; negative” and the mutagenic call (Test System: AMES SALMONELLA TYPHIMURIUM, Strain/Indicator: TA1538, Metabolic Activation: S-9, Method: STANDARD PLATE) was “inactive; negative”.

`OC1c2cccnc2C2OC2C1O` (stereo not drawn) was tested, and the mutagenic call [2] was “inactive; negative” and the mutagenic call (Test System: AMES SALMONELLA TYPHIMURIUM, Strain/Indicator: TA100, Metabolic Activation: RAT, LIVER, S-9, AROCLOR 1254 (10 OR 20%), Method: STANDARD PLATE) was “inactive; negative”.

In the case of `N[C@@H](CS)C(=O)NCC(=O)O`, the mutagenic call [3] is reported as “active; positive”.

With `O=[N+]([O-])C1=Cc2cccc3c2c1cc1ccc2ccccc2c13` the mutagenic call [1] was “active; positive”, the mutagenic call [7] was “inactive; negative” and the mutagenic call [2] was “inactive; negative”. The mutagenic call [8] was “active; positive”, the mutagenic call [4] was “inactive; negative” and the mutagenic call [9] was “inactive; negative”. The mutagenic call [5] was “active; positive”, the mutagenic call [10] was “active; positive” and the mutagenic call [6] was “active; positive”. For the same molecule, the mutagenic call [11] was “active; positive”.

With `COc1cc(CNC(=O)CCCCCCC(C)C)ccc1O` the mutagenic call (Test System: AMES SALMONELLA TYPHIMURIUM, Strain/Indicator: TA98, Metabolic Activation: HAMSTER, LIVER, S-9, AROCLOR 1254, Method: STANDARD PLATE) was “inactive; negative”, the mutagenic call [7] was “inactive; negative” and the mutagenic call (Test System: AMES SALMONELLA TYPHIMURIUM, Strain/Indicator: TA100, Metabolic Activation: HAMSTER, LIVER, S-9, AROCLOR 1254, Method: STANDARD PLATE) was “inactive; negative”. The mutagenic call [2] was “inactive; negative”, the mutagenic call [8] was “inactive; negative” and the mutagenic call (Test System: AMES SALMONELLA TYPHIMURIUM, Strain/Indicator: TA1535, Metabolic Activation: HAMSTER, LIVER, S-9, AROCLOR 1254, Method: STANDARD PLATE) was “inactive; negative”. For the same molecule, the mutagenic call [4] was “inactive; negative”, the mutagenic call [9] was “inactive; negative” and the mutagenic call (Test System: AMES SALMONELLA TYPHIMURIUM, Strain/Indicator: TA1537, Metabolic Activation: HAMSTER, LIVER, S-9, AROCLOR 1254, Method: STANDARD PLATE) was “inactive; negative”. The mutagenic call [5] was “inactive; negative”, the mutagenic call [10] was “inactive; negative” and the mutagenic call (Test System: AMES SALMONELLA TYPHIMURIUM, Strain/Indicator: TA1538, Metabolic Activation: HAMSTER, LIVER, S-9, AROCLOR 1254, Method: STANDARD PLATE) was “inactive; negative”. For the same molecule, the mutagenic call [6] was “inactive; negative” and the mutagenic call [11] was “inactive; negative”.

For `CC(=O)Nc1ccc2ccc3c(O)ccc4ccc1c2c43`, the mutagenic call (Test System: AMES SALMONELLA TYPHIMURIUM, Strain/Indicator: TA98(1,8-DNP6), Metabolic Activation: NONE, Method: STANDARD PLATE) was “inactive; negative”, the mutagenic call (Test System: AMES SALMONELLA TYPHIMURIUM, Strain/Indicator: TA98(1,8-DNP6), Metabolic Activation: RAT, LIVER, S-9, AROCLOR 1254, Method: STANDARD PLATE) was “inactive; negative” and the mutagenic call [7] was “active; positive”. For the same molecule, the mutagenic call (Test System: AMES SALMONELLA TYPHIMURIUM, Strain/Indicator: YG1024, Metabolic Activation: NONE, Method: STANDARD PLATE) was “inactive; negative” and the mutagenic call (Test System: AMES SALMONELLA TYPHIMURIUM, Strain/Indicator: YG1024, Metabolic Activation: RAT, LIVER, S-9, AROCLOR 1254, Method: STANDARD PLATE) was “active; positive”.

`COc1cc2oc(-c3ccc(O)cc3)c(O)c(=O)c2cc1OC` was tested, and the mutagenic call [12] was “inactive; negative”, the mutagenic call (Test System: AMES SALMONELLA TYPHIMURIUM, Strain/Indicator: TA98, Metabolic Activation: RAT LIVER S-9, SODIUM BARBITAL AND BETA-NAPHTHAFLAVONE, Method: PREINCUBATION) was “inactive; negative” and the mutagenic call [13] was “inactive; negative”. For the same molecule, the mutagenic call (Test System: AMES SALMONELLA TYPHIMURIUM, Strain/Indicator: TA100, Metabolic Activation: RAT LIVER S-9, SODIUM BARBITAL AND BETA-NAPHTHAFLAVONE, Method: PREINCUBATION) was “inactive; negative”.

In the case of `O[C@H]1[C@@H]2O[C@@H]2C=C[C@@H]1O`, the mutagenic call [12] is reported as “inactive; negative”, the mutagenic call [13] is reported as “inactive; negative” and the mutagenic call (Test System: AMES SALMONELLA TYPHIMURIUM, Strain/Indicator: TA1535, Metabolic Activation: NONE, Method: PREINCUBATION) is reported as “active; positive”.

For `O=Nc1cc2c3ccccc3ccc2c2ccccc12`, the mutagenic call [12] was “active; positive”, the mutagenic call (Test System: AMES SALMONELLA TYPHIMURIUM, Strain/Indicator: TA98, Metabolic Activation: RAT, LIVER, S-9, AROCLOR 1254, Method: PREINCUBATION) was “active; positive” and the mutagenic call [13] was “active; positive”. The mutagenic call (Test System: AMES SALMONELLA TYPHIMURIUM, Strain/Indicator: TA100, Metabolic Activation: RAT, LIVER, S-9, AROCLOR 1254, Method: PREINCUBATION) was “active; positive”, the mutagenic call (Test System: CHINESE HAMSTER OVARY, Strain/Indicator: CHO-K1-BH4 (HGPRT)/6-THIOGUANINE, Metabolic Activation: NONE, Method: STANDARD PLATE) was “active; positive” and the mutagenic call (Test System: CHINESE HAMSTER OVARY, Strain/Indicator: CHO-UV5 (HGPRT)/6-THIOGUANINE, Metabolic Activation: NONE, Method: STANDARD PLATE) was “active; positive”.
